Molecular target: Voltage-dependent L-type calcium channel subunit alpha-1D (Rattus norvegicus, UniProt P27732)
Assay: Inhibition of [3H]nitrendipine binding to L-type [Ca2+] channel in rat cortex homogenate, activity expressed as pIC50

Voltage-dependent L-type calcium channel subunit alpha-1D, sequence (P27732 whole entry): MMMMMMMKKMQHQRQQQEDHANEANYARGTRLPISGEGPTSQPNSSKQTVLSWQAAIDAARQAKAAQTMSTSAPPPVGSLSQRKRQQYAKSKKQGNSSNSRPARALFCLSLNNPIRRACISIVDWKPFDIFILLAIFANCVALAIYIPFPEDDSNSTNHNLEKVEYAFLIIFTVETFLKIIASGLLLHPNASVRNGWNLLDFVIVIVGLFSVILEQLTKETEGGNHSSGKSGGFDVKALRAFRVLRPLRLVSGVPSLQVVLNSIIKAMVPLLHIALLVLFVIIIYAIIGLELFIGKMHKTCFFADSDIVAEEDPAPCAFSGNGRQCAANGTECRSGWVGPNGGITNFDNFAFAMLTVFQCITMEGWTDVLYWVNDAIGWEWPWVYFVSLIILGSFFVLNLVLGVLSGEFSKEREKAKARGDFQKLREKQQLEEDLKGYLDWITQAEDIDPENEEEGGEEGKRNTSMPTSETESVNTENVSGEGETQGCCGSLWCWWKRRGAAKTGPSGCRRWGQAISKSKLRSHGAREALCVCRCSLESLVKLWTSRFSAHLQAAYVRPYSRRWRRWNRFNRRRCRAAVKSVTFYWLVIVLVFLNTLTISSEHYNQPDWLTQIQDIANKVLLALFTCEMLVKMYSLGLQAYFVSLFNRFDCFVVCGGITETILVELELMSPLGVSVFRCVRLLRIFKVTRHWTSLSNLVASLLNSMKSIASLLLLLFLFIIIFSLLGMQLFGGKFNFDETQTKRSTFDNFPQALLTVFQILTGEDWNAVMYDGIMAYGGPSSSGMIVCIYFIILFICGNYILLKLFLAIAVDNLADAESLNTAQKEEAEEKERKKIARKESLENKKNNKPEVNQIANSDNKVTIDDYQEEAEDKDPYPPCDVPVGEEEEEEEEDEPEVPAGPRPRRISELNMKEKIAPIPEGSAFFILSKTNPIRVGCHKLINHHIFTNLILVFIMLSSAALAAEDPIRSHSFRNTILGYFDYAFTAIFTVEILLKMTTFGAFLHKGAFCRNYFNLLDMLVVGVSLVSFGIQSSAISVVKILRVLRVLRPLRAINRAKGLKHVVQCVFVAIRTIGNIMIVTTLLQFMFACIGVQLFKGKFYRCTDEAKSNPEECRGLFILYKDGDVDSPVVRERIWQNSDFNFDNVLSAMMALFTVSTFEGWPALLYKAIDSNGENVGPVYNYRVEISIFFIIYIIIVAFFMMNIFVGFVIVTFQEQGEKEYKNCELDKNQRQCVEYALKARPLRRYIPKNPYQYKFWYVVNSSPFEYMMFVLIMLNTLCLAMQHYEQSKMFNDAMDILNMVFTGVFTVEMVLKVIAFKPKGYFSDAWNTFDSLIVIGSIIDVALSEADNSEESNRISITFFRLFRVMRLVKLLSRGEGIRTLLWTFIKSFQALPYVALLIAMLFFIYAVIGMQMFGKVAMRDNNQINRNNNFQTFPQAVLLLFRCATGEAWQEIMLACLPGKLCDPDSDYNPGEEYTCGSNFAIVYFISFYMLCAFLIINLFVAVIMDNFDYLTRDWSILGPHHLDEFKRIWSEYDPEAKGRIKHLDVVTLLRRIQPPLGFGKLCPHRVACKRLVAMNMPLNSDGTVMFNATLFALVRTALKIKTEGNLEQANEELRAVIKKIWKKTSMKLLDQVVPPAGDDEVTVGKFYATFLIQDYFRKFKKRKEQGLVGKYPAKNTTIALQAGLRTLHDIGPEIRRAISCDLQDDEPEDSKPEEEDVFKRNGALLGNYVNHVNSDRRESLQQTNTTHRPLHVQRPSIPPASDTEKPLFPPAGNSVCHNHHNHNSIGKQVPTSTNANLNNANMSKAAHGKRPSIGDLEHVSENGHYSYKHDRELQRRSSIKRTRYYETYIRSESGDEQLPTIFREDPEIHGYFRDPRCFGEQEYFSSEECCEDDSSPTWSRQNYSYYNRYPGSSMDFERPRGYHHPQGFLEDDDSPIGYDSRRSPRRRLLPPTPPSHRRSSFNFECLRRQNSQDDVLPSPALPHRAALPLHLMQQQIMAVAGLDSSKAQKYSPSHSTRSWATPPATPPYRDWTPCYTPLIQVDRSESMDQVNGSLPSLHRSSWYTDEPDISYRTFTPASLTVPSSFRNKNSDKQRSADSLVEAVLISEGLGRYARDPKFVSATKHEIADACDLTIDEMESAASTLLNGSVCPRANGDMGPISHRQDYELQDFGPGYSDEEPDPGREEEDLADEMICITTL

An IC50 of 15.1 nM was found for `CCC(C)NCc1ccc2n1-c1ccccc1SC2c1ccc(OC)cc1OC` (centres undefined) in this work.

An IC50 of 81.3 nM was found for `CN(C)Cc1ccc2n1-c1cccc(Cl)c1SC2(c1ccccc1)c1ccccc1` in this work.

An IC50 of 2040 nM was found for `FC(F)(F)c1ccc2c(c1)-n1cccc1C(c1ccccc1)(c1ccccc1)S2` in this work.

An IC50 of 1230 nM was found for `CC(=O)O[C@H]1c2ccc(CN(C)C)n2-c2cc(Cl)ccc2S[C@H]1c1ccccc1` in this work.

An IC50 of 0.776 nM was found for `O=C1CC[C@H]2[C@H](c3ccccc3)Sc3ccccc3N12` in this work.

An IC50 of 52.5 nM was found for `COc1ccc(C2Sc3ccccc3-n3c(CN(C)CCc4ccc(OC)c(OC)c4)ccc32)cc1` (centres undefined) in this work.

An IC50 of 12 nM was found for `CCC(C)NCc1ccc2n1-c1ccccc1SC2C1=CCC(OC)(OC)C=C1` (centres undefined) in this work.

An IC50 of 302 nM was found for `CC(=O)O[C@H]1c2ccc(CN(C)C)n2-c2cc(C(F)(F)F)ccc2S[C@H]1c1ccccc1` in this work.

An IC50 of 4.37 nM was found for `COc1ccc([C@@H]2Sc3ccccc3N3C(=O)CC[C@@H]23)cc1` in this work.

An IC50 of 107 nM was found for `CN(C)Cc1ccc2n1-c1cc(C(F)(F)F)ccc1SC2(c1ccccc1)c1ccccc1` in this work.

An IC50 of 5010 nM was found for `COc1ccc(C2Sc3ccccc3-n3c(CN4CCOCC4)ccc32)cc1` (centres undefined) in this work.

An IC50 of 4370 nM was found for `Clc1ccc2c(c1)-n1cccc1C(c1ccccc1)(c1ccccc1)S2` in this work.

An IC50 of 468 nM was found for `c1ccc(C2(c3ccccc3)Sc3ccccc3-n3cccc32)cc1` in this work.

An IC50 of 4680 nM was found for `CC(=O)OC1(c2ccccc2)Sc2ccccc2-n2cccc21` (centres undefined) in this work.

An IC50 of 151 nM was found for `COc1ccc(C2Sc3ccccc3-n3c(CN(C)C)ccc32)c(OC)c1` (centres undefined) in this work.

An IC50 of 316 nM was found for `CN(C)Cc1ccc2n1-c1ccccc1SC2c1ccccc1` (centres undefined) in this work.

An IC50 of 316 nM was found for `Clc1cccc2c1SC(c1ccccc1)(c1ccccc1)c1cccn1-2` in this work.

An IC50 of 3.31 nM was found for `COc1ccc([C@@H]2Sc3ccc(Cl)cc3-n3c(CN(C)C)ccc3[C@@H]2OC(C)=O)cc1` in this work.

An IC50 of 2190 nM was found for `COc1ccc(C2(c3ccc(OC)cc3)Sc3ccccc3-n3c(CN(C)C)ccc32)cc1` in this work.

An IC50 of 1580 nM was found for `COc1ccc(C2Sc3ccccc3-n3c(CN(C)CCc4ccc(OC)c(OC)c4)ccc32)c(OC)c1` (centres undefined) in this work.

An IC50 of 5010 nM was found for `COC1(OC)C=CC(C2(C3=CCC(OC)(OC)C=C3)Sc3ccc(C(F)(F)F)cc3-n3cccc32)=CC1` in this work.

An IC50 of 5010 nM was found for `COc1ccc([C@@H]2Sc3ccc(C(F)(F)F)cc3-n3c(CN(C)C)ccc3[C@@H]2OC(C)=O)cc1` in this work.

An IC50 of 30.2 nM was found for `COc1ccc(C2(OC(C)=O)Sc3ccccc3-n3cccc32)cc1` (centres undefined) in this work.

An IC50 of 64.6 nM was found for `CC(=O)OC1(c2ccccc2)Sc2ccc(C(F)(F)F)cc2-n2cccc21` (centres undefined) in this work.

An IC50 of 200 nM was found for `COc1ccc(CCN(C)Cc2ccc3n2-c2ccccc2SC3c2ccccc2)cc1OC` (centres undefined) in this work.

An IC50 of 135 nM was found for `COc1ccc([C@@H]2Sc3ccccc3-n3c(CN(C)C)ccc3[C@@H]2OC(C)=O)cc1` in this work.

An IC50 of 398 nM was found for `COc1ccc(CCNCc2ccc3n2-c2ccccc2SC3C2=CCC(OC)(OC)C=C2)cc1OC` (centres undefined) in this work.

An IC50 of 5010 nM was found for `COC1(OC)C=CC(C2(C3=CCC(OC)(OC)C=C3)Sc3ccccc3-n3cccc32)=CC1` in this work.

An IC50 of 5010 nM was found for `CC(=O)O[C@H]1c2ccc(CN(C)C)n2-c2ccccc2S[C@H]1c1ccccc1` in this work.

— ChEMBL document CHEMBL1130013, “Diltiazem-like calcium entry blockers: a hypothesis of the receptor-binding site based on a comparative molecular field analysis model” (J Med Chem, 1997)
